Experimental findings from patent US7960435B2, “Anti-cancer agents and androgen inhibition activity compound” (University of Maryland, Baltimore, priority 2006, dated 2011) are described below.

For data set [1], the system named is LNCaP cells. Description: Cell growth inhibition (MTT colorimetric assay), LNCaP. Particulars: for GI50: LNCaP (mutant AR), MTT, means of three experiments, called IC50, read-out: Cytotoxicity GI50 (nM) LNCaP. It counts as cell-based, human. An excerpt: (§1) Lead optimization of BTB01434 and further biological studies: BTB01434 (Maybridge) was used as a lead molecule to synthesize new molecules. Although this compound was not as potent as some of the others (cf. Table 4), it was chosen for its ease of modification. New compounds (6-23) were developed using the diaryl sulfonamide compound BTB01434 (FIG. 6) as a scaffold. […] Including new BTB01434 analogs, including diaryl sulfonamide analogs bearing various substituents on the phenyl rings (series A), aryl amide analogs (series B), and amine analogs (series C). These new compounds were evaluated for cell growth inhibition in two human prostate cancer cell lines, (LNCaP and PC-3) by MTT assay. Based on the structures and anti-prostate cancer activities of the new compounds, a structure-activity relationship (SAR) was formulated.
Androgen-dependent LNCaP cells were obtained from American Type Culture Collection (Rockville, Md., USA). Cells were maintained in RPMI 1640 medium supplemented with 10% fetal bovine serum (Atlanta Biologicals, Lawrenceville, Ga., USA) and 1% penicillin/streptomycin. Cells were grown as a monolayer in T75 or T150 tissue culture flasks in a humidified incubator (5% CO2, 95% air) at 37° C.
(§2) LNCaP cells were seeded in 24 well plates (Corning Costar) at a density of 2×10^4 cells per well per 1 mL of medium. Cell were allowed to adhere to the plate for 24 hours and then treated with different concentrations of ARDAs dissolved in DMSO. Cells were treated for five days with renewal of ARDA and media on day 3. On the fifth day, medium was renewed and 100 μL of MTT (3-(4,5-dimethylthiazol-2-yl)-2,5-diphenyl-2H-tetrazolium bromide from Sigma) solution (0.5 mg MTT/mL of medium) was added to the medium such that the ratio of MTT:medium was 1:10. The cells were incubated with MTT for 2 hours. The medium was then aspirated and 500 μL of DMSO was added to solubilize the violet MTT-formazan product. The absorbance at 560 nm was measured by spectrophotometry (Victor 1420 multilabel counted, Wallac). For each concentration of ARDA there were triplicate wells in each independent experiment. IC50 values were calculated by nonlinear regression analysis using GraphPad Prism software.

Data set [2] concerns PC-3 cells. Description: Cell growth inhibition (MTT assay), PC-3. Format: cell-based, human. Particulars: PC-3 (AR null), means of three experiments, called IC50, read-out: Cytotoxicity GI50 (nM) PC-3.
Excerpt: as §1
Inhibition of prostate cancer cell proliferation and SAR: The exemplary compounds were then tested for their ability to inhibit cell viability in both the LNCaP (mutant AR) and PC-3 (AR null) cell lines (Table 5).
as §2
In general terms: Formazan colour is commonly taken as a measure of viable cells.

For data set [3], the system named is androgen receptor (AR). Description: AR protein expression down-regulation in LNCaP cells (Western blot). Format: cell-based, human. The procedure: All five known ARDAs (FIG. 1) were evaluated for their ability to decrease AR protein expression in a dose dependent manner and dose response curves were generated to determine their EC50 values.
These compounds were further evaluated to determine their EC50 values (from dose response curves).
For immunoblot detection of the AR, LNCaP cells were cultured as described above in T25 flasks. Cells were treated with various concentrations of ARDAs and whole cell lysates were prepared using lysis buffer containing 0.1M Tris, 0.5% Triton X-100, and protease inhibitor. Protein content was determined using the Bradford Assay (Bio-Rad, Hercules, Calif., USA). Protein was subjected to SDS-PAGE (10% acrylamide) and transferred onto nitrocellulose membrane. The blots were blocked overnight in 5% nonfat milk in PBS-T buffer at 4° C. Monoclonal antibody was used against the AR (AR441; sc-7305; Santa Cruz Biotechnology, Santa Cruz, Calif.; 1:500 dilution) at room temperature for one hour. Membranes were then incubated with a goat anti-mouse IgG secondary antibody conjugated to horseradish peroxidase (Bio-Rad cat #170-6516; 1:2000 dilution) at room temperature for one hour. Blots were rinsed with PBS-T between each step and specific bands were visualized by enhanced chemiluminescence (ECL; Amersham Biosciences, Arlington Heights, Ill., USA). Equivalent loading of samples was determined by reprobing membranes with β-actin (Calbiochem, USA). Protein expression was normalized to β-actin.
A general note: A western blot detects proteins with antibodies after separation by electrophoresis.

Data set [4] deals with T1, wild-type AR (Homo sapiens, UniProt P10275).
T1 construct: expressed in transfected cells; host or cells: PC-3 (stably transfected, PC-3-AR)
T1 sequence (P10275 1-920): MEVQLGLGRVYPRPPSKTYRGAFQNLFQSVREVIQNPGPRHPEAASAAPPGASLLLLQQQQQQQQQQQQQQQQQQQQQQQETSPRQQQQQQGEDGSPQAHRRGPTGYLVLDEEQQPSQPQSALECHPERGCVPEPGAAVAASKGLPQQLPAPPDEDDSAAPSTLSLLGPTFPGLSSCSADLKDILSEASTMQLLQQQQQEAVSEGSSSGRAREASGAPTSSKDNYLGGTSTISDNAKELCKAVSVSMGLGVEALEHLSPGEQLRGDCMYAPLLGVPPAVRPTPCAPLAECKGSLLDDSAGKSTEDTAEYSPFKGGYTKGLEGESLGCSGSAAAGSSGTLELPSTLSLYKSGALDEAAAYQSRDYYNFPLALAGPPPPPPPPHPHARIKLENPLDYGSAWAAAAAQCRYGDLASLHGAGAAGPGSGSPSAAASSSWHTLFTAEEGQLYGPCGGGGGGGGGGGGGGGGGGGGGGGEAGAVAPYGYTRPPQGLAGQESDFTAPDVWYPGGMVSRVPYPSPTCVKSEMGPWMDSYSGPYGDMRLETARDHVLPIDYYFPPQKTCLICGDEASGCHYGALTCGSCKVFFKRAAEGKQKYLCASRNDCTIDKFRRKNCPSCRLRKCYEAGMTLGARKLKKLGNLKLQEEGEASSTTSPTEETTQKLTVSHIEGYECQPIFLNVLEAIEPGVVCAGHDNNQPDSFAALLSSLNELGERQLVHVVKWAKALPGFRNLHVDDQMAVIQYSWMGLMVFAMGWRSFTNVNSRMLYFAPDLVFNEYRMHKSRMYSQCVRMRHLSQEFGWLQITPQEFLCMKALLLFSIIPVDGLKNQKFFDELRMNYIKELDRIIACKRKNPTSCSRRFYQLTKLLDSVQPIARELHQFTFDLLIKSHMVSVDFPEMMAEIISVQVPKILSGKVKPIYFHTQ
The data set is described as follows: Competitive androgen receptor binding with [3H]-R1881 in PC-3-AR cells. The following applies: for reduction of [3H]-R1881 binding: PC-3-AR cells. The procedure: In both cell lines, compounds 9 and 11 were able to effectively compete with labeled R1881 in a dose-dependent fashion (FIG. 11). In PC-3-AR cells compound II reduced [^3H]-R1881 binding by 65% and 80% at 10 μM and 20 μM, respectively. […] Compound 9 reduced [^3H]-R1881 binding by 50% and 65% at 10 μM and 20 μM, respectively, and was equipotent in both cell lines.
(§3) These assays were performed as previously described.^10

Data set [5] deals with AR-mediated transcription (LNCaP-AR). Description: Luciferase transactivation assay in LNCaP cells transfected with ARR2-Luc. It counts as cell-based, human. The following applies: for effect on luciferase activity, compound alone: without DHT. The procedure:
FIG. 12. […] Cells in steroid-free medium were treated with vehicle, or increasing concentrations of either 9 or 11 with and without 5 nM DHT for 18 h. Cells were then assayed for luciferase activity using a know assay.^10
To determine if the compounds act as AR agonists or antagonists, androgen regulated transcriptional activation studies were performed in LNCaP cells transiently transfected with the probasin luciferase reported construct ARR2-Luc.
as §3

Where [6] appears, read: AR down-regulation, LNCaP cells (Table 5), read-out: ARDA EC50.
Setting [7] is: decrease of AR protein expression, LNCaP cells, training set ARDAs (Table 1), read-out: EC50 values.

Where two headings read alike, the source gives them in different places. A value given as a limit tells only on which side of the number the result lay.

On to `Cc1ccc(NS(=O)(=O)c2ccccc2)c(C(=O)O)c1` [Compound 10, 5-Methyl-2-[(phenylsulfonyl)amino]benzoic acid], for which the GI50 in data set [1] (Homo sapiens, LNCaP) is 18.2 nM.

As for `Cc1ccc(NCc2ccccc2)cc1` [Compound 23, (4-Methylphenyl)benzylamine], the GI50 in data set [2] (Homo sapiens) was 52400 nM; in data set [1] (Homo sapiens, LNCaP), greater than 100000 nM.

On to `Cc1ccc(N(C)S(=O)(=O)c2ccc(C)cc2)cc1` [Compound 18, Methyl(4-methylphenyl)[(4-methylphenyl)sulfonyl]amine], for which the GI50 was 44700 nM in data set [2] (Homo sapiens) and 89200 nM in data set [1] (Homo sapiens, LNCaP).

For `Cc1ccc(S(=O)(=O)Nc2ccccc2[N+](=O)[O-])cc1` [Compound 6, [(4-Methylphenyl)sulfonyl](2-nitrophenyl)amine], in data set [3] (setting [6]), the EC50 is greater than 150 µM. Also, the GI50 was 50100 nM in data set [2] (Homo sapiens) and 83 nM in data set [1] (Homo sapiens, LNCaP).

As to `Cc1ccc(S(=O)(=O)Nc2ccc(C)cc2[N+](=O)[O-])cc1` [BTB01434, reference compound], the EC50 came out at 76 µM in data set [3] (setting [6]) and 76 µM in data set [3] (LNCaP cells, database hits (Table 4), read-out: EC50 (μM), ability to down-regulate AR protein expression). The GI50 in data set [2] (Homo sapiens) was 43700 nM; in data set [1] (Homo sapiens, LNCaP), 39800 nM. In addition, in data set [1] (Homo sapiens, LNCaP cells (Table 4), read-out: IC50 (μM), effect on LNCaP cell viability), the IC50 turned out to be 39.8 µM.

For the compound `Cc1ccc(NS(=O)(=O)c2ccccc2)cc1` [Compound 15, (4-methylphenyl)(phenylsulfonyl)amine], the GI50 came out at 13800 nM in data set [2] (Homo sapiens) and 21300 nM in data set [1] (Homo sapiens, LNCaP).

Take `Cc1ccc(C#N)c(NS(=O)(=O)c2ccc(F)cc2)c1` [Compound 13, 2-{[(4-fluorophenyl)sulfonyl]amino}-4-methylbenzenecarbonitrile]: the concentration for 50% growth inhibition (GI50) in data set [2] (Homo sapiens) is roughly 100000 nM; in data set [1] (Homo sapiens, LNCaP), 30200 nM.

In the case of `Cc1ccc(NS(=O)(=O)c2ccccc2)c([N+](=O)[O-])c1` [Compound 8, (4-Methyl-2-nitrophenyl)(phenylsulfonyl)amine], the GI50 stood at 60200 nM in data set [2] (Homo sapiens) and 2.95 nM in data set [1] (Homo sapiens, LNCaP).

Regarding `Cc1ccc(NS(=O)(=O)c2ccc(C)cc2)cc1` [Compound 11, (4-Methylphenyl)[(4-methylphenyl)sulfonyl]amine], the “greater inhibition of [3H]-R1881 binding to wild-type AR than to mutated receptor” value in data set [4] (10 μM and above) is on record as “approximately 20%”. Besides, the entries for the “reduction of [3H]-R1881 binding” value in data set [4] (10 μM) and in data set [4] (20 μM) were 65% and 80%, respectively. Besides, the GI50 in data set [2] (Homo sapiens) was 30200 nM; in data set [1] (Homo sapiens, LNCaP) it was 1.45 nM. The “effect on luciferase activity, compound alone” value in data set [5] (0.1 μM) and in data set [5] (10 μM) was “no effect” in each case. Moreover, in data set [5] (10 μM, with 5 nM DHT), the “reduction of luciferase expression in the presence of DHT” value came out at 80%.

Take `Cc1ccc(NC(=O)c2ccc(C)cc2)cc1` [Compound 19, (4-Methylphenyl)-N-(4-methylphenyl)carboxamide]: the GI50 was found to be 26900 nM in data set [2] (Homo sapiens) and 55000 nM in data set [1] (Homo sapiens, LNCaP).

On to `O=C(O)c1ccccc1Nc1cccc(C(F)(F)F)c1` [Flufenamic acid (3), flufenamic acid], for which the EC50 in data set [3] (setting [7]) is roughly 200 µM.

Take `Cc1ccc(S(=O)(=O)Nc2ccccc2)cc1` [Compound 16, [(4-Methylphenyl)sulfonyl]phenylamine]: the GI50 amounted to 38900 nM in data set [2] (Homo sapiens) and 24000 nM in data set [1] (Homo sapiens, LNCaP).

On to `Cc1ccc(-c2nnn[nH]2)c(NS(=O)(=O)c2ccc(F)cc2)c1` [Compound 14, (2-(1H-1,2,3,4-tetrazole-5-yl)-5-methylphenyl)[(4-fluorophenyl)sulfonyl]amine], for which the GI50 in data set [2] (Homo sapiens) was greater than 100000 nM; in data set [1] (Homo sapiens, LNCaP), greater than 100000 nM.

With `Cc1ccc(CNc2ccc(C)cc2)cc1` [Compound 21, (4-Methylphenyl) [(4-methylphenyl)methyl]amine], the GI50 in data set [2] (Homo sapiens) stood at 29500 nM; in data set [1] (Homo sapiens, LNCaP) it was 19000 nM.

`O=S(=O)(Nc1ccccc1)c1ccccc1` [Compound 17, Phenyl(phenylsulfonyl)amine]: the GI50 is greater than 100000 nM in data set [2] (Homo sapiens) and 53500 nM in data set [1] (Homo sapiens, LNCaP).

For `C[C@]12CCC(=O)C[C@@H]1CC[C@@H]1[C@@H]2CC[C@]2(C)[C@@H](O)CC[C@@H]12` [DHT, dihydrotestosterone, reference compound], the “stimulation of luciferase activity” value in data set [5] (5 nM) is “approximately 200 fold”.

For `COc1cc(/C=C/C(=O)CC(=O)/C=C/c2ccc(O)c(OC)c2)ccc1O` [Curcumin (4), curcumin], in data set [3] (setting [7]), the EC50 is 35 µM.

Take `Cc1ccc(NS(=O)(=O)c2ccc(F)cc2)c(C(=O)O)c1` [Compound 12, {[(4-fluorophenyl)sulfonyl]amino}-5-methylbenzoicacid]: the results for the GI50 in data set [2] and in data set [1] were greater than 100000 nM and 10700 nM, respectively.

In general, GI50 refers to the concentration at which growth is held to half of that of the control. In general, EC50 refers to the concentration at which the effect is half-maximal. As usually defined, the IC50 is the concentration at which inhibition is half-maximal.
